Each block holds one compound with its values, some of them ahead of it.
Experiments:
Assay type in all cases: biochemical
MYC = test: In vitro transcription-translation (IVTT) assay, MYC reporter; details: HeLa S3 lysate, 2 hrs at 30° C.
From the text: (§1) All reporter constructs have been cloned into the pT7CFE1-CHis plasmid (ThermoFisher #88860) using Gibson assembly procedures (NEB #E2611L). The parental pT7CFE1-CHis plasmid contains an EMCV IRES at the 5′UTR for translation initiation, a multiple-cloning site (MCS) for gene insertion, an optional C-terminal His-epitope tag, and polyA sequence in the 3′UTR to regulate mRNA stability. All reporters are designed to be inserted at the MCS to include a red fluorescent protein (mCherry), P2A self-cleaving peptide which releases the preceding mCherry protein product, and a fusion open reading frame containing a 3×FLAG epitope, a peptide sequence of interest (TEST), and green fluorescent protein (sfGFP).
(§2) Construct Plasmid Preparation: All plasmids are isolated from MACH1 cells (ThermoFisher) grown overnight in ampicillin-containing luria broth, and purified using ZymoPure Express Plasmid Midiprep Kit (Zymo Research). Constructs are sequenced verified and diluted to a working concentration of 110 ng/μL.
(§3) HeLa S3 Lysate Preparation: HeLa S3 cell pellets are acquired from Ipracell/Ipratech (Belgium) and shipped as 4 mL frozen cell pellets on dry ice for storage at −80° C. until use. The procedure for lysate preparation is as follows. Prepare 1× Lysis Buffer, cold and stored on ice:
(§4) Each preparation takes 8 cell pellets (4 ml packed volume each, approximately 1.0×10^9 cells per pellet). Thaw cell pellets from −80° C. on ice for 90 mins. Lay pellets horizontally on top of the ice and rotate every 30 mins to ensure even thawing. Once thawed, add 4 mL of cold lysis buffer to each pellet, and using a serological pipet, gently pipet up and down to break up clumps. Incubate resuspended cells in ice for an additional 30 mins (plunged into ice). During 30 min incubation, rinse and RNase-zap (Ambion) glass dounces (use loose pestle “A”), gently dry and place on ice until needed. Prepare RNase-free Eppendorf tubes for spinning and for batch storage. Add batch labels to 1.5-1.7 mL RNase-free microcentrifuge tubes (labeling scheme below). Each batch will have an extra 1.5-1.7 mL RNase-free microcentrifuge tube for 40 μL of lysate, label the top of this tube (labeling scheme below). After 30 min incubation, transfer all 8 mL of cell pellet to dounce. Cell lysis is complete after douncing 100 times. Aliquot cell lysis into 1.5-1.7 mL temporary-microcentrifuge tubes. Place tubes in centrifuge with “fins” out, and spin at 1,200×g for 5 mins. After the first spin use a 1 mL pipet to resuspend each tube and repeat spin. This acts as an additional lysis step, is more vigorous and increases lysate yield. During second spin get liquid N2 and a fresh conical tube on ice. After spin is complete, transfer supernatant (lysate) from microcentrifuge tubes into the 50 mL conical tube and keep on ice. Repeat steps 10-14 for all other cell pellets until completed. Once all cell lysate has been transferred to the 50 mL conical tube pipet to mix so the solution is homogenous. Transfer 1 mL of lysate into batch-labeled microcentrifuge tubes and flash freeze in liquid nitrogen. Be sure to pipet up and down to mix throughout transfer step. Place all tubes in the […] for long-term storage.
(§5) In vitro transcription-translation assay setup: Each assay includes a master mix containing lysate and shared components, a 96-well plate containing compound titrations for testing, a 96-well DNA plate with reporter constructs to be tested, 96-well skirted PCR plates, and 96-well flat-bottom, black, fluorescent assay plates. […]

CCND1 = test: In vitro transcription-translation (IVTT) assay, CCND1 reporter; details: HeLa S3 lysate, 2 hrs at 30° C.
From the text: as §1, §2, §3, §4, §5

MCL-1 = test: In vitro transcription-translation (IVTT) assay, MCL-1 reporter; details: HeLa S3 lysate, sfGFP/mCherry ratio, 2 hrs at 30° C.
From the text: as §1, §2, §3, §4, §5

[1] = IVTT assay, MYC reporter, normalized sfGFP/mCherry ratio, half-log dilutions 30 μM-0.1 μM

SMILES: O=C(NCCc1cnoc1)O[C@@H]1[C@@H](O)CN[C@@H]1Cc1ccc(-c2cncs2)cc1 [V193647, (2R,3S,4S)-4-hydroxy-2-(4-(thiazol-5-yl)benzyl)pyrrolidin-3-yl (2-(isoxazol-4-yl)ethyl)carbamate]
IC50 (MYC; [1]): < 10 µM

SMILES: COc1ccc(C[C@H]2NC[C@H](O)[C@H]2OC(=O)NCc2ccc(B(O)O)cc2)cc1 [V188106]
IC50 (MYC; sfGFP/mCherry ratio): < 10 µM
IC50 (CCND1; sfGFP/mCherry ratio): < 10 µM
IC50 (MCL-1): < 10 µM

SMILES: COc1ccc(C[C@H]2NC[C@H](O)[C@H]2OC(=O)NCCn2cnc3ccccc32)cc1 [V188090, (2R,3S,4S)-4-hydroxy-2-[(4-methoxyphenyl)methyl]pyrrolidin-3-yl N-[2-(1,3-benzodiazol-1-yl)ethyl]carbamate]
IC50 (MYC; sfGFP/mCherry ratio): > 30 µM
IC50 (CCND1; sfGFP/mCherry ratio): > 30 µM

SMILES: COc1ccc(C[C@H]2NC[C@H](O)[C@H]2OC(=O)NCC2CC(F)(F)C2)cc1 [V187862, (2R,3S,4S)-4-hydroxy-2-[(4-methoxyphenyl)methyl]pyrrolidin-3-yl N-[(3,3-difluorocyclobutyl)methyl]carbamate]
IC50 (MYC; sfGFP/mCherry ratio): < 10 µM
IC50 (CCND1; sfGFP/mCherry ratio): < 10 µM
IC50 (MCL-1): < 10 µM

SMILES: O=C(NCC[C@H]1CCOC1)O[C@@H]1[C@@H](O)CN[C@@H]1Cc1ccc(-c2cncs2)cc1 [V193643, (2R,3S,4S)-4-hydroxy-2-(4-(thiazol-5-yl)benzyl)pyrrolidin-3-yl (2-((S)-tetrahydrofuran-3-yl)ethyl)carbamate]
IC50 (MYC; [1]): < 10 µM

SMILES: O=C(NCC[C@@H]1CCOC1)O[C@@H]1[C@@H](O)CN[C@@H]1Cc1ccc(-c2cncs2)cc1 [V193642, (2R,3S,4S)-4-hydroxy-2-(4-(thiazol-5-yl)benzyl)pyrrolidin-3-yl (2-((R)-tetrahydrofuran-3-yl)ethyl)carbamate]
IC50 (MYC; [1]): < 10 µM

SMILES: COc1ccc(C[C@H]2NC[C@H](O)[C@H]2OC(=O)NCC2CNC2)cc1 [V187599, (2R,3S,4S)-4-hydroxy-2-[(4-methoxyphenyl)methyl]pyrrolidin-3-yl N-(azetidin-3-ylmethyl)carbamate]
IC50 (MYC; sfGFP/mCherry ratio): > 30 µM
IC50 (MCL-1): 10 to 20 µM

SMILES: CNC(=O)O[C@@H]1[C@@H](O)CN[C@@H]1Cc1ccc(-c2cn(-c3cc4ccc(O)cc4oc3=O)nn2)cc1 [V193432, (2R,3S,4S)-4-hydroxy-2-(4-(1-(7-hydroxy-2-oxo-2H-chromen-3-yl)-1H-1,2,3-triazol-4-yl)benzyl)pyrrolidin-3-yl methylcarbamate]
IC50 (MYC; [1]): < 10 µM

SMILES: COc1ccc(C[C@H]2NC[C@H](O)[C@H]2OC(=O)NCc2cnc(N)nc2)cc1 [V188037, (2R,3S,4S)-4-hydroxy-2-[(4-methoxyphenyl)methyl]pyrrolidin-3-yl N-[(2-aminopyrimidin-5-yl)methyl]carbamate]
IC50 (MYC; sfGFP/mCherry ratio): < 10 µM
IC50 (CCND1; sfGFP/mCherry ratio): < 10 µM
IC50 (MCL-1): < 10 µM

SMILES: COc1ccc(C[C@H]2NC[C@H](O)[C@H]2OC(=O)NCCNc2ccccn2)cc1 [V188059, (2R,3S,4S)-4-hydroxy-2-[(4-methoxyphenyl)methyl]pyrrolidin-3-yl N-[2-(pyridin-2-ylamino)ethyl]carbamate]
IC50 (MYC; sfGFP/mCherry ratio): 10 to 20 µM
IC50 (CCND1; sfGFP/mCherry ratio): 10 to 20 µM
IC50 (MCL-1): 10 to 20 µM

SMILES: COc1ccc(C[C@H]2NC[C@H](O)[C@H]2OC(=O)N[C@H](C)c2ccccc2)cc1 [V191970, (2R,3S,4S)-4-hydroxy-2-[(4-methoxyphenyl)methyl]pyrrolidin-3-yl N-[(1R)-1-phenylethyl]carbamate]
IC50 (MYC; [1]): > 30 µM
IC50 (CCND1; IVTT): > 30 µM

SMILES: O=C(NCC[C@H]1C[C@H](O)C1)O[C@@H]1[C@@H](O)CN[C@@H]1Cc1ccc(-c2cncs2)cc1 [V193645, (2R,3S,4S)-4-hydroxy-2-(4-(thiazol-5-yl)benzyl)pyrrolidin-3-yl (2-((1r,3R)-3-hydroxycyclobutyl)ethyl)carbamate]
IC50 (MYC; [1]): < 10 µM

SMILES: CC(C)CCNC(=O)O[C@@H]1[C@@H](O)CN[C@@H]1Cc1ccc(-c2cncs2)cc1 [V193648, (2R,3S,4S)-4-hydroxy-2-(4-(thiazol-5-yl)benzyl)pyrrolidin-3-yl isopentylcarbamate]
IC50 (MYC; [1]): < 10 µM

SMILES: O=C(NCC[C@H]1CCCO1)O[C@@H]1[C@@H](O)CN[C@@H]1Cc1ccc(-c2cncs2)cc1 [V193641, (2R,3S,4S)-4-hydroxy-2-(4-(thiazol-5-yl)benzyl)pyrrolidin-3-yl (2-((R)-tetrahydrofuran-2-yl)ethyl)carbamate]
IC50 (MYC; [1]): < 10 µM

SMILES: O=C(NCCc1cn[nH]c1)O[C@@H]1[C@@H](O)CN[C@@H]1Cc1ccc(-c2cncs2)cc1 [V193646, (2R,3S,4S)-4-hydroxy-2-(4-(thiazol-5-yl)benzyl)pyrrolidin-3-yl (2-(1H-pyrazol-4-yl)ethyl)carbamate]
IC50 (MYC; [1]): < 10 µM

SMILES: O=C(NCC[C@H]1C[C@@H](O)C1)O[C@@H]1[C@@H](O)CN[C@@H]1Cc1ccc(-c2cncs2)cc1 [V193644, (2R,3S,4S)-4-hydroxy-2-(4-(thiazol-5-yl)benzyl)pyrrolidin-3-yl (2-((1s,3S)-3-hydroxycyclobutyl)ethyl)carbamate]
IC50 (MYC; [1]): < 10 µM

More lines, now with the values ahead:

IC50 (MYC; sfGFP/mCherry ratio): 20 to 30 µM
IC50 (CCND1; sfGFP/mCherry ratio): > 30 µM
IC50 (MCL-1): 10 to 20 µM
SMILES: COc1ccc(C[C@H]2NC[C@H](O)[C@H]2OC(=O)NC[C@@H]2CNC[C@@H]2O)cc1 [Cmpd V188116]

IC50 (MYC; sfGFP/mCherry ratio): 20 to 30 µM
IC50 (CCND1; sfGFP/mCherry ratio): < 10 µM
IC50 (MCL-1): < 10 µM
SMILES: COc1ccc(C[C@H]2NC[C@H](O)[C@H]2OC(=O)NCC(N)=O)cc1 [V188002, (2R,3S,4S)-4-hydroxy-2-[(4-methoxyphenyl)methyl]pyrrolidin-3-yl N-(carbamoylmethyl)carbamate]

IC50 (MYC; sfGFP/mCherry ratio): 10 to 20 µM
IC50 (CCND1; sfGFP/mCherry ratio): < 10 µM
IC50 (MCL-1): < 10 µM
SMILES: O=C(NCCc1ccncc1)O[C@@H]1[C@@H](O)CN[C@@H]1Cc1ccc(-c2cn(-c3ccc(Cl)cc3)nn2)cc1 [V187950, (2R,3S,4S)-2-({4-[1-(4-chlorophenyl)-1,2,3-triazol-4-yl]phenyl}methyl)-4-hydroxypyrrolidin-3-yl N-[2-(pyridin-4-yl)ethyl]carbamate]

IC50 (MYC; sfGFP/mCherry ratio): 10 to 20 µM
IC50 (CCND1; sfGFP/mCherry ratio): > 30 µM
SMILES: COc1ccc(C[C@H]2NC[C@H](O)[C@H]2OC(=O)NC[C@@H]2CCN(C)C2)cc1 [V188109, (2R,3S,4S)-4-hydroxy-2-[(4-methoxyphenyl)methyl]pyrrolidin-3-yl N-{[(3S)-1-methylpyrrolidin-3-yl]methyl}carbamate]

IC50 (MYC; sfGFP/mCherry ratio): 10 to 20 µM
IC50 (CCND1; sfGFP/mCherry ratio): 20 to 30 µM
IC50 (MCL-1): < 10 µM
SMILES: COc1ccc(C[C@H]2NC[C@H](O)[C@H]2OC(=O)NCCn2ccnc2C)cc1 [V188087, (2R,3S,4S)-4-hydroxy-2-[(4-methoxyphenyl)methyl]pyrrolidin-3-yl N-[2-(2-methylimidazol-1-yl)ethyl]carbamate]

IC50 (CCND1; sfGFP/mCherry ratio): < 10 µM
IC50 (MCL-1): < 10 µM
SMILES: [H]/N=C(/N)c1cccc(CNC(=O)O[C@@H]2[C@@H](O)CN[C@@H]2Cc2ccc(OC)cc2)c1 [Cmpd V187989]

IC50 (MYC; sfGFP/mCherry ratio): < 10 µM
IC50 (CCND1; sfGFP/mCherry ratio): < 10 µM
IC50 (MCL-1): < 10 µM
SMILES: O=C(NCCc1ccncc1)O[C@@H]1[C@@H](O)CN[C@@H]1Cc1ccc(-c2cn(Cc3cn[nH]c3)nn2)cc1 [V187948, (2R,3S,4S)-4-hydroxy-2-({4-[1-(1H-pyrazol-4-ylmethyl)-1,2,3-triazol-4-yl]phenyl}methyl)pyrrolidin-3-yl N-[2-(pyridin-4-yl)ethyl]carbamate]

IC50 (MYC; sfGFP/mCherry ratio): 20 to 30 µM
IC50 (CCND1; sfGFP/mCherry ratio): > 30 µM
SMILES: COc1ccc(C[C@H]2NC[C@H](O)[C@H]2OC(=O)NC[C@@H]2CNC[C@H]2O)cc1 [V188093, (2R,3S,4S)-4-hydroxy-2-[(4-methoxyphenyl)methyl]pyrrolidin-3-yl N-{[(3S,4S)-4-hydroxypyrrolidin-3-yl]methyl}carbamate]

IC50 (MYC; sfGFP/mCherry ratio): 10 to 20 µM
IC50 (MCL-1): < 10 µM
SMILES: COc1ccc(C[C@H]2NC[C@H](O)[C@H]2OC(=O)NCCC2CNC2)cc1 [V187600, (2R,3S,4S)-4-hydroxy-2-[(4-methoxyphenyl)methyl]pyrrolidin-3-yl N-[2-(azetidin-3-yl)ethyl]carbamate]

IC50 (MYC; sfGFP/mCherry ratio): > 30 µM
IC50 (CCND1; sfGFP/mCherry ratio): > 30 µM
IC50 (MCL-1): > 30 µM
SMILES: COc1ccc(C[C@H]2NC[C@H](O)[C@H]2NC(=O)OCc2ccccc2)cc1 [Cmpd V187864]
